Values quoted from earlier work in patent US20060121016A1, “Methods and compositions for treatment of free radical injury” (priority 2004, published 2006).

Conditions: administered both before and after the operation

Oc1ncnc2[nH]ncc12 [allopurinol]
Reduction of incidence of complication following surgery: 70%
